Experimental data as given in PMC6251916, “CKD-506, a novel HDAC6-selective inhibitor, improves renal outcomes and survival in a mouse model of systemic lupus erythematosus” (Scientific Reports, 2018).

Legend:
[1] = system: THP1-Blue ISG human monocyte cell line; assay: cGAMP induced IFN promoter activity reporter assay (IRF-inducible SEAP); type: cell-based; conditions: 3 μM; 10 μM cGAMP; 24hr; significant
Source text: Supplementary Figure 2. A representative gating scheme of the T cell subset and CD138+ […]
To analyze T helper subsets, splenocytes were stained with antibodies to CD4 and CD25 (FITC-conjugated anti-mouse CD4 and APC-conjugated anti-mouse CD25, BD Biosciences).
Cells were fixed and permeabilized prior to staining with Foxp3 (Tube 007), ROR-γt (Tube 008), T-bet (Tube 009), and GATA-3 (Tube 010) antibodies (PE-, BD Biosciences).
The splenocytes were stained with PerCP-Cy5.5-conjugated anti-mouse CD3e (PerCP-cy5.5-CD3e, eBioscience, San Diego, CA, USA), fluorescein isothiocyanate (FITC)-conjugated anti-mouse CD4 (FITC-CD4, BD Biosciences, San Jose, CA, USA), PE-cyanine7-conjugated anti-mouse CD8a (eBioscience), and APC-conjugated anti-mouse CD25 (Tube 011).
Unstained control (no antibody, Tube 001), FITC control (FITC-conjugated anti-mouse CD4 only, Tube 002), APC control (APC-conjugated anti-mouse CD25 only, Tube 003), PE control (PE-conjugated anti-mouse CD138 (BD Bioscience) only, Tube 004), and PerCP-Cy5.5 CD3 control (PerCP-Cy5.5-conjugated anti-mouse CD3e only, Tube 005) were also used for gating. cGAMP induced IFN promoter activ ity
Supplementary Figure 3. […]
The SEAP activity in the culture supernatant was measured with Flexstation (Molecular Devices, USA) after incubation with Quanti-Blue solution (InvivoGen, USA) for 15 min. […]

NZB/W F1 female mice [2] = assay: Murine SLE model: flow cytometry of splenocytes; type: in vivo, mouse
Source text: Single cell suspensions were obtained from the spleens of NZB/W F1 mice at autopsy (at 43–44 weeks of age). The splenocytes were stained with PerCP-Cy5.5-conjugated anti-mouse CD3e (PerCP-cy5.5-CD3e, eBioscience, San Diego, CA, USA), fluorescein isothiocyanate (FITC)-conjugated anti-mouse CD4 (FITC-CD4, BD Biosciences, San Jose, CA, USA), PE-cyanine7-conjugated anti-mouse CD8a (eBioscience), allo-phycocyanin (APC)-conjugated anti-mouse CD25 (BD Biosciences) and PE-conjugated anti-mouse CD138 (BD Biosciences).
T cell profile was analyzed as described previously; briefly, we examined proportions of Th1 cells (CD4^+CD25^+T-bet^+), Th2 cells (CD4^+CD25^+GATA-3^+), Th17 cells (CD4^+CD25^+ROR-γt^+), and Treg cells (CD4^+CD25^+Foxp3^+). To analyze T helper subsets, the splenocytes were stained with antibodies to CD4 and CD25 (FITC-conjugated anti-mouse CD4 and APC-conjugated anti-mouse CD25, BD Biosciences). Cells were fixed and permeabilized prior to staining with T-bet, GATA-3, ROR-γt and Foxp3 antibodies (PE-, BD Biosciences).

NZB/W F1 female mice [3] = assay: Murine SLE model: BUN and anti-dsDNA antibody levels; type: in vivo, mouse
Description: (§1) Survival had been monitored until 42 weeks of age.
Blood samples had been collected from mice under isoflurane anesthesia every 4 weeks (at 24, 28, 32, 36, 40 weeks of age and autopsy), and the obtained serum samples had been kept at −70 °C until the analysis.

[4] = design: method as in EudraCT number: 2016-002816-42; conditions: ref EudraCT number: 2016-002816-42; cited from earlier work
NZB/W F1 female mice [5] = assay: Murine SLE model: serum immunoglobulin isotyping; type: in vivo, mouse; conditions: group CKD50
Description: as §1
Serum immunoglobulin concentrations were determined with mouse IgG1, IgG2A, IgG2B, IgG3, and IgM Isotyping kits and a mouse Mag Isotyping assay base kit (R&D Systems, Minneapolis, MN). Thirty-fold diluted sera were used for analysis of IgM and IgG2B levels, 6000-fold diluted sera were used for analysis of IgG1 and IgG2A levels and 48,000-fold diluted sera were used for analysis of IgG3 level.

NZB/W F1 female mice [6] = assay: Murine SLE model: survival, severe proteinuria, UP/C; type: in vivo, mouse; conditions: for Survival rate at the end of the study: 42-weeks of age; for incidence of severe proteinuria (urine protein >300 mg/dl): 42 weeks of age
Description: as §1
During the experiments, urine protein levels had been measured every 2 weeks. Fresh urine was collected by performing abdominal massages. Urine protein was measured with the Coomassie Brilliant Blue method as described in our previous study. Urine creatinine was measured using a DRI-CHEM 3000 Colorimetric analyzer (Fujifilm, Tokyo, Japan) with the urine diluted in deionized water (1:100 dilution).

## CKD-506
[1]
  cGAMP induced IFN promoter activity: repressed
NZB/W F1 female mice [2]; group CKD10, spleen
  fewer CD4−CD8− cells compared with group vehicle: 19.1%
  fewer CD138+ cells compared with group vehicle: 21.2%
NZB/W F1 female mice [2]; group CKD30, spleen
  fewer CD4−CD8− cells compared with group vehicle: 28.3%
  fewer CD138+ cells compared with group vehicle: 25.2%
NZB/W F1 female mice [2]; group CKD50
  CD4−CD8+ T cells in spleen vs vehicle: significantly more
  percentage of CD25+ cells in spleen vs vehicle: significantly lower
NZB/W F1 female mice [2]; group CKD50, spleen
  T-bet expression by CD4+ cells vs vehicle: significantly lower
  fewer CD4−CD8− cells compared with group vehicle: 27.3%
  fewer CD138+ cells compared with group vehicle: 31.6%
NZB/W F1 female mice [3]; group CKD30, 40 weeks of age
  Levels of BUN vs vehicle: significantly lower
NZB/W F1 female mice [3]; group CKD30, at autopsy
  Levels of BUN vs vehicle: significantly lower
NZB/W F1 female mice [3]; group CKD50, 36 weeks of age
  Levels of BUN vs vehicle: significantly lower
NZB/W F1 female mice [3]; group CKD50, 40 weeks of age
  Levels of BUN vs vehicle: significantly lower
NZB/W F1 female mice [3]; group CKD50, at autopsy
  Levels of BUN vs vehicle: significantly lower
[4]
  safety in phase I clinical trial: did not reveal significant safety issues
NZB/W F1 female mice [5]
  serum levels of IgM vs vehicle: significantly lower
NZB/W F1 female mice [6]; group CKD10: 10 mg/kg/day i.p.
  Survival rate at the end of the study: 73.3%
  incidence of severe proteinuria (urine protein >300 mg/dl): 13.3%
NZB/W F1 female mice [6]; group CKD30: 30 mg/kg/day i.p.
  Survival rate at the end of the study: 93.3%
  incidence of severe proteinuria (urine protein >300 mg/dl): 6.7%
NZB/W F1 female mice [6]; group CKD50: 50 mg/kg/day i.p.
  Survival rate at the end of the study: 93.3%
  incidence of severe proteinuria (urine protein >300 mg/dl): 0%
NZB/W F1 female mice [6]; group CKD50, 42 weeks, not significantly different from other groups
  urine protein/urine creatinine (UP/C): lowest UP/C mean value
